According to US10927105B1 (Lundbeck La Jolla Research Center, Inc., priority 2017, dated 2021):

Each molecule was assayed against MAGL (Homo sapiens (Human), UniProt Q99685) (assay: In vitro competitive activity-based protein profiling (human prefrontal cortex membrane fractions, FP-Rh probe), MAGL band). Conditions: read-out: MAGL IC50 (μM) (human); human prefrontal cortex membrane fractions.
Chain of MAGL (Q99685 whole entry): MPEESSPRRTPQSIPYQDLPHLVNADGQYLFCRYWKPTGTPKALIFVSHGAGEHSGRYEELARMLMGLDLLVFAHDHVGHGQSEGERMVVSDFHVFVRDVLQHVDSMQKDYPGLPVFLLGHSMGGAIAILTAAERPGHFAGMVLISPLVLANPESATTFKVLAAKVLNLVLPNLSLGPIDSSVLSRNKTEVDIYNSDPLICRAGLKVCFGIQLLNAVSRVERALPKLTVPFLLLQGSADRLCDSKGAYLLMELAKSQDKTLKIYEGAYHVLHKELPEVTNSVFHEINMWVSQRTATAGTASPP

Structure (SMILES) | IC50
O=C(O)c1ccn(C(=O)N2CC3CN(Cc4cc(Cl)cc(C(F)(F)F)c4)CC3C2)n1 (stereo not drawn) [Example 124, 1-(5-(3-chloro-5-(trifluoromethyl)-benzyl)-octahydropyrrolo-[3,4-c]pyrrole-2-carbonyl)-1H-pyrazole-3-carboxylic acid] | < 0.1 µM
O=C(O)c1nn(C(=O)N2CCN(Cc3cc(Cl)cc(-c4cncnc4)c3)CC2)cc1Cl [Example 323, 4-chloro-1-(4-(3-chloro-5-(pyrimidin-5-yl)benzyl)-piperazine-1-carbonyl)-1H-pyrazole-3-carboxylic acid] | < 0.1 µM
O=C(O)c1nn(C(=O)N2CCN(Cc3cc(F)cc(Oc4ccc(Cl)cc4)c3)CC2)cc1C(F)(F)F [Example 408, 1-(4-(3-(4-chlorophenoxy)-5-fluorobenzyl)-piperazine-1-carbonyl)-4-(trifluoromethyl)-1H-pyrazole-3-carboxylic acid] | < 0.1 µM
O=C(O)c1ccn(C(=O)N2CCC(Oc3ccc(C(F)(F)F)cc3N3CCCC3)CC2)n1 [Example 307, 1-(4-(2-(pyrrolidin-1-yl)-4-(trifluoromethyl)-phenoxy)-piperidine-1-carbonyl)-1H-pyrazole-3-carboxylic acid] | < 0.1 µM
CN(Cc1cccc(C(F)(F)F)c1)C1(C)CCN(C(=O)n2ccc(C(N)=O)n2)CC1 [Example 258] | < 0.1 µM
Cc1cn(C(=O)N2CCC(C)(N(C)Cc3ccc(C(F)(F)F)cc3N3CCCC3)CC2)nc1C(=O)O [Example 398] | < 0.1 µM
O=C(O)c1ccn(C(=O)N2C[C@H]3C[C@H](OCc4cccc(C(F)(F)F)c4)C[C@H]3C2)n1 [Example 157, 1-(trans-5-((3-(trifluoromethyl)-benzyl)oxy)-octahydrocyclopenta-[c]pyrrole-2-carbonyl)-1H-pyrazole-3-carboxylic acid] | < 0.1 µM
CNC(=O)c1ccn(C(=O)N2CC3CN(Cc4cccc(C(F)(F)F)c4)CC3C2)n1 (stereo not drawn) [Example 432, N-methyl-1-(5-(3-(trifluoromethyl)-benzyl)-octahydropyrrolo-[3,4-c]pyrrole-2-carbonyl)-1H-pyrazole-3-carboxamide] | < 0.1 µM
NC(=O)c1ccn(C(=O)N2CC3CN(Cc4ccc(C5(O)CCOCC5)cc4C(F)(F)F)CC3C2)n1 (stereo not drawn) [Example 396, 1-(5-(4-(4-hydroxytetrahydro-2H-pymn-4-yl)-2-(trifluoromethyl)-benzyl)-octahydropyrrolo-[3,4-c]pyrrole-2-carbonyl)-1H-pyrazole-3-carboxamide] | < 0.1 µM
C[C@H]1CN(Cc2cccc(Oc3cc(C(F)(F)F)ccn3)c2)CCN1C(=O)n1ccc(C(=O)O)n1 [Example 373, (S)-1-(2-methyl-4-(3-((4-(trifluoromethyl)-pyridin-2-yl)oxy)benzyl)-piperazine-1-carbonyl)-1H-pyrazole-3-carboxylic acid] | < 0.1 µM
O=C(O)c1ccn(C(=O)N2CCC(OCc3cc(Cl)cc(Oc4ccc(Cl)cc4)c3)CC2)n1 [Example 27, 1-(4-((3-Chloro-5-(4-chlorophenoxy)benzyl)oxy)piperidine-1-carbonyl)-1H-pyrazole-3-carboxylic Acid] | < 0.1 µM
CNC(=O)c1ccn(C(=O)N2C[C@H]3C[C@@H](N(C)Cc4ccccc4C(F)(F)F)C[C@H]3C2)n1 [Example 434, N-methyl-1-(cis-5-(methyl(2-(trifluoromethyl)-benzyl)amino)-octahydrocyclopenta-[c]pyrrole-2-carbonyl)-1H-pyrazole-3-carboxamide] | < 0.1 µM
NC(=O)c1ccn(C(=O)N2CCC3(CCN(Cc4cccc(C(F)(F)F)c4)C3)C2)n1 (stereo not drawn) [Example 429, 1-(7-(3-(trifluoromethyl)-benzyl)-2,7-diazaspiro[4.4]-nonane-2-carbonyl)-1H-pyrazole-3-carboxamide] | < 0.1 µM
O=C(O)c1nn(C(=O)N2CCC3(CCN(Cc4ccc(N5CCCC5)cc4C(F)(F)F)C3)CC2)cc1Cl [Example 138, 4-chloro-1-(2-(4-(pyrrolidin-1-yl)-2-(trifluoromethyl)-benzyl)-2,8-diazaspiro[4.5]-decane-8-carbonyl)-1H-pyrazole-3-carboxylic acid] | < 0.1 µM
C[C@@H]1CN(Cc2cc(F)cc(Oc3ccc(Cl)cc3)c2)CCN1C(=O)n1ccc(C(=O)O)n1 [Example 348, (R)-1-(4-(3-(4-chlorophenoxy)-5-fluorobenzyl)-2-methylpiperazine-1-carbonyl)-1H-pyrazole-3-carboxylic acid] | < 0.1 µM
CC(C)c1ccccc1O[C@H]1C[C@@H]2CN(C(=O)n3ccc(C(=O)O)n3)C[C@@H]2C1 [Example 221, 1-(trans-5-(2-isopropylphenoxy)-octahydrocyclopenta-[c]pyrrole-2-carbonyl)-1H-pyrazole-3-carboxylic acid] | < 0.1 µM
O=C(O)c1ccn(C(=O)N2C[C@H]3C[C@H](OCc4cccc(-c5ccccc5)c4)C[C@H]3C2)n1 [Example 278, 1-(trans-5-([1,1′-biphenyl]-3-ylmethoxy)-octahydrocyclopenta-[c]pyrrole-2-carbonyl)-1H-pyrazole-3-carboxylic acid] | < 0.1 µM

Structure (SMILES) | IC50
O=C(O)c1nn(C(=O)N2CC3CN(Cc4ccc(N5CCCC5)cc4C(F)(F)F)CC3C2)cc1Cl (stereo not drawn) [Example 140, 4-chloro-1-(5-(4-(pyrrolidin-1-yl)-2-(trifluoromethyl)-benzyl)-octahydropyrrolo-[3,4-c]pyrrole-2-carbonyl)-1H-pyrazole-3-carboxylic acid] | < 0.1 µM
C[C@H]1CC[C@H](C)N1c1cc(C(F)(F)F)ccc1CN1CCN(C(=O)n2ccc(C(=O)O)n2)CC1 [Example 360, 1-(4-(2-((2S,5S)-2,5-dimethylpyrrolidin-1-yl)-4-(trifluoromethyl)-benzyl)piperazine-1-carbonyl)-1H-pyrazole-3-carboxylic acid] | < 0.1 µM
O=C(O)c1nn(C(=O)N2CCC3(CCN(Cc4cc(Cl)ccc4C(F)(F)F)C3)CC2)cc1C(F)(F)F [Example 148, 1-(2-(5-chloro-2-(trifluoromethyl)-benzyl)-2,8-diazaspiro[4.5]-decane-8-carbonyl)-4-(trifluoromethyl)-1H-pyrazole-3-carboxylic acid] | < 0.1 µM
C[C@H]1CN(Cc2cc(Cl)cc(C(F)(F)F)c2)CCN1C(=O)n1ccc(C(N)=O)n1 [Example 271, (S)-1-(4-(3-chloro-5-(trifluoromethyl)-benzyl)-2-methylpiperazine-1-carbonyl)-1H-pyrazole-3-carboxamide] | < 0.1 µM
O=C(O)c1ccn(C(=O)N2C[C@H]3C[C@H](Oc4cccc(-c5cccnc5)c4)C[C@H]3C2)n1 [Example 241, 1-(trans-5-(3-(pyridin-3-yl)phenoxy)-octahydrocyclopenta-[c]pyrrole-2-carbonyl)-1H-pyrazole-3-carboxylic acid] | < 0.1 µM
CNC(=O)c1ccn(C(=O)N2C[C@H]3C[C@@H](N(C)Cc4ccc(C(F)(F)F)cc4)C[C@H]3C2)n1 [Example 439, N-methyl-1-(cis-5-(methyl(4-(trifluoromethyl)-benzyl)amino)-octahydrocyclopenta-[c]pyrrole-2-carbonyl)-1H-pyrazole-3-carboxamide] | < 0.1 µM
O=C(O)c1ccn(C(=O)N2C[C@H]3C[C@H](OCc4cccc(C5CCCC5)c4)C[C@H]3C2)n1 [Example 34, 1-(trans-5-((3-Cyclopentylbenzyl)oxy)octahydrocyclopenta[c]pyrrole-2-carbonyl)-1H-pyrazole-3-carboxylic Acid] | < 0.1 µM
O=C(O)c1ccn(C(=O)N2C[C@H]3C[C@@H](Oc4cccc(-c5ccccc5)c4)C[C@H]3C2)n1 [Example 164, 1-(cis-5-([1,1′-biphenyl]-3-yloxy)-octahydrocyclopenta-[c]pyrrole-2-carbonyl)-1H-pyrazole-3-carboxylic acid] | < 0.1 µM
C[C@H]1CN(Cc2cc(F)cc(Oc3ccc(Cl)cc3)c2)CCN1C(=O)n1ccc(C(=O)O)n1 [Example 347, (S)-1-(4-(3-(4-chlorophenoxy)-5-fluorobenzyl)-2-methylpiperazine-1-carbonyl)-1H-pyrazole-3-carboxylic acid] | < 0.1 µM
NC(=O)c1ccn(C(=O)N2CCC3(CCN(Cc4ccc(N5CCOCC5)cc4Cl)C3)CC2)n1 [Example 197, 1-(2-(2-chloro-4-morpholinobenzyl)-2,8-diazaspiro[4.5]-decane-8-carbonyl)-1H-pyrazole-3-carboxamide] | < 0.1 µM
O=C(O)c1ccn(C(=O)N2CCN(Cc3ccc(Cl)c(-c4nccs4)c3)CC2)n1 [Example 274, 1-(4-(4-chloro-3-(thiazol-2-yl)benzyl)-piperazine-1-carbonyl)-1H-pyrazole-3-carboxylic acid] | < 0.1 µM
CN(Cc1cc(Cl)ccc1C(F)(F)F)CC1CCN(C(=O)n2ccc(C(=O)O)n2)CC1 [Example 209, 1-(4-(((5-chloro-2-(trifluoromethyl)-benzyl)-(methyl)amino)-methyl)piperidine-1-carbonyl)-1H-pyrazole-3-carboxylic acid] | < 0.1 µM
CC(C)COc1cccc(O[C@H]2C[C@@H]3CN(C(=O)n4ccc(C(=O)O)n4)C[C@@H]3C2)c1Cl [Example 448] | < 0.1 µM
CN(Cc1ccc(C(F)(F)F)cc1N1CCCCC1)C1(C)CCN(C(=O)n2ccc(C(=O)O)n2)CC1 [Example 397, 1-(4-methyl-4-(methyl(2-(piperidin-1-yl)-4-(trifluoromethyl)-benzyl)amino)-piperidine-1-carbonyl)-1H-pyrazole-3-carboxylic acid] | < 0.1 µM
C[C@@H]1C[C@@H](N(C)Cc2cccc(C(F)(F)F)c2)CCN1C(=O)n1ccc(C(N)=O)n1 [Example 260, 1-((2R,4S)-2-methyl-4-(methyl(3-(trifluoromethyl)-benzyl)amino)-piperidine-1-carbonyl)-1H-pyrazole-3-carboxamide] | < 0.1 µM
NC(=O)c1ccn(C(=O)N2CCN(Cc3cnccc3C(F)(F)F)CC2)n1 [Example 175, 1-(4-((4-(trifluoromethyl)-pyridin-3-yl)methyl)-piperazine-1-carbonyl)-1H-pyrazole-3-carboxamide] | < 0.1 µM
